In BigSolDB 2.1:

O=C(O)c1cc([N+](=O)[O-])cc([N+](=O)[O-])c1O
solubility (mole fraction)
Conditions | 278.15 K | 283.15 K | 288.15 K | 293.15 K | 298.15 K | 303.15 K | 308.15 K | 313.15 K | 318.15 K | 323.15 K
in 1,4-dioxane | – | – | 0.044 | 0.0495 | 0.0554 | 0.0622 | 0.0695 | 0.0778 | 0.0877 | 0.0994
in DMF | 0.0853 | 0.0951 | 0.107 | 0.119 | 0.135 | 0.152 | 0.171 | 0.19 | 0.214 | 0.241
in DMSO | – | – | – | 0.0749 | 0.0869 | 0.0999 | 0.114 | 0.13 | 0.149 | 0.172
in NMP | 0.0924 | 0.103 | 0.116 | 0.13 | 0.146 | 0.166 | 0.185 | 0.207 | 0.234 | 0.264
in acetonitrile | 0.0108 | 0.0125 | 0.0149 | 0.0177 | 0.0209 | 0.0248 | 0.029 | 0.0349 | 0.0411 | 0.0485
in cyclohexane | – | 0.00292 | 0.0036 | 0.00449 | 0.00558 | 0.00686 | 0.00836 | 0.0104 | 0.0128 | 0.0156
in ethanol | 0.0465 | 0.0518 | 0.0582 | 0.0659 | 0.0756 | 0.0862 | 0.0977 | 0.11 | 0.124 | 0.14
in ethyl acetate | 0.046 | 0.0501 | 0.0554 | 0.0619 | 0.0687 | 0.0771 | 0.0858 | 0.0966 | 0.109 | 0.122
in ethylene glycol | 0.0245 | 0.0277 | 0.0316 | 0.0365 | 0.0415 | 0.0476 | 0.054 | 0.062 | 0.0709 | 0.082
in isobutanol | 0.0139 | 0.0161 | 0.0198 | 0.0244 | 0.0295 | 0.0358 | 0.0439 | 0.0506 | 0.0589 | 0.0712
in isopropanol | 0.0262 | 0.03 | 0.0348 | 0.0402 | 0.0463 | 0.053 | 0.0608 | 0.0702 | 0.0808 | 0.0944
in n-butanol | 0.0116 | 0.0141 | 0.0172 | 0.0199 | 0.024 | 0.0301 | 0.0345 | 0.0424 | 0.049 | 0.0592
in n-propanol | 0.0364 | 0.0403 | 0.0456 | 0.0521 | 0.0597 | 0.068 | 0.0769 | 0.0866 | 0.0972 | 0.111
in water | 0.000646 | 0.000779 | 0.000964 | 0.0012 | 0.00145 | 0.00171 | 0.00198 | 0.00245 | 0.00301 | 0.00381
